According to article PMC8885417, “Pharmacological targeting of MTHFD2 suppresses acute myeloid leukemia by inducing thymidine depletion and replication stress” (Nature Cancer, 2022):

How the values were obtained:
Adrenergic α2A = target: T1, Adrenergic α2A (Homo sapiens, UniProt P08913); experiment: biochemical; design: Eurofins SafetyScreen44 panel of binding and enzyme assays, mean per cent inhibition of duplicate; conditions: read-out: Inhibition (%) at 10 µM TH9619
T1 construct: gene ADRA2A
Description: (§1) Bars represent the mean change in protein melting temperature (ΔTm) of one experiment performed in triplicate. […] Bars represent mean inhibition in percentage of one experiment performed in duplicate.

[1] = target: T2, Cholecystokinin CCK1 (CCKA) (Homo sapiens, UniProt P32238); experiment: biochemical; design: Eurofins SafetyScreen44 panel of binding and enzyme assays, mean per cent inhibition of duplicate; conditions: read-out: Inhibition (%) at 10 µM TH9619
T2 construct: gene CCKAR
Description: as §1

Cannabinoid CB1 = target: T3, Cannabinoid CB1 (Homo sapiens, UniProt P21554); experiment: biochemical; design: Eurofins SafetyScreen44 panel of binding and enzyme assays, mean per cent inhibition of duplicate; conditions: read-out: Inhibition (%) at 10 µM TH9619
T3 construct: gene CNR1
Description: as §1

Opiate µ (OP3, MOP) = target: T4, Opiate µ (OP3, MOP) (Homo sapiens, UniProt P35372); experiment: biochemical; design: Eurofins SafetyScreen44 panel of binding and enzyme assays, mean per cent inhibition of duplicate; conditions: read-out: Inhibition (%) at 10 µM TH9619
T4 construct: gene OPRM1
Description: as §1

[2] = target: T5, Transporter, Dopamine (DAT) (Homo sapiens, UniProt Q01959); experiment: biochemical; design: Eurofins SafetyScreen44 panel of binding and enzyme assays, mean per cent inhibition of duplicate; conditions: read-out: Inhibition (%) at 10 µM TH9619
T5 construct: gene SLC6A3
Description: as §1

Endothelin ETA = target: T6, Endothelin ETA (Homo sapiens, UniProt P25101); experiment: biochemical; design: Eurofins SafetyScreen44 panel of binding and enzyme assays, mean per cent inhibition of duplicate; conditions: read-out: Inhibition (%) at 10 µM TH9619
T6 construct: gene EDNRA
Description: as §1

[3] = target: T7, Serotonin (5-Hydroxytryptamine) 5-HT1B (Homo sapiens, UniProt P28222); experiment: biochemical; design: Eurofins SafetyScreen44 panel of binding and enzyme assays, mean per cent inhibition of duplicate; conditions: read-out: Inhibition (%) at 10 µM TH9619
T7 construct: gene HTR1B
Description: as §1

Dopamine D1 = target: T8, Dopamine D1 (Homo sapiens, UniProt P21728); experiment: biochemical; design: Eurofins SafetyScreen44 panel of binding and enzyme assays, mean per cent inhibition of duplicate; conditions: read-out: Inhibition (%) at 10 µM TH9619
T8 construct: gene DRD1
Description: as §1

Phosphodiesterase PDE4D2 = target: T9, Phosphodiesterase PDE4D2 (Homo sapiens, UniProt Q08499); experiment: biochemical; design: Eurofins SafetyScreen44 panel of binding and enzyme assays, mean per cent inhibition of duplicate; conditions: read-out: Inhibition (%) at 10 µM TH9619
T9 construct: gene PDE4D; isoform PDE4D2
Description: as §1

Histamine H2 = target: T10, Histamine H2 (Homo sapiens, UniProt P25021); experiment: biochemical; design: Eurofins SafetyScreen44 panel of binding and enzyme assays, mean per cent inhibition of duplicate; conditions: read-out: Inhibition (%) at 10 µM TH9619
T10 construct: gene HRH2
Description: as §1

Androgen (Testosterone) = target: T11, Androgen (Testosterone) (Homo sapiens, UniProt P10275); experiment: biochemical; design: Eurofins SafetyScreen44 panel of binding and enzyme assays, mean per cent inhibition of duplicate; conditions: read-out: Inhibition (%) at 10 µM TH9619
T11 construct: gene AR
Description: as §1

Cannabinoid CB2 = target: T12, Cannabinoid CB2 (Homo sapiens, UniProt P34972); experiment: biochemical; design: Eurofins SafetyScreen44 panel of binding and enzyme assays, mean per cent inhibition of duplicate; conditions: read-out: Inhibition (%) at 10 µM TH9619
T12 construct: gene CNR2
Description: as §1

[4] = target: T13, Serotonin (5-Hydroxytryptamine) 5-HT3 (Homo sapiens, UniProt P46098); experiment: biochemical; design: Eurofins SafetyScreen44 panel of binding and enzyme assays, mean per cent inhibition of duplicate; conditions: read-out: Inhibition (%) at 10 µM TH9619
T13 construct: gene HTR3A
Description: as §1

Opiate κ (OP2, KOP) = target: T14, Opiate κ (OP2, KOP) (Homo sapiens, UniProt P41145); experiment: biochemical; design: Eurofins SafetyScreen44 panel of binding and enzyme assays, mean per cent inhibition of duplicate; conditions: read-out: Inhibition (%) at 10 µM TH9619
T14 construct: gene OPRK1
Description: as §1

[5] = target: T15, Cholinesterase,Acetyl, ACES (Homo sapiens, UniProt P22303); experiment: biochemical; design: Eurofins SafetyScreen44 panel of binding and enzyme assays, mean per cent inhibition of duplicate; conditions: read-out: Inhibition (%) at 10 µM TH9619
T15 construct: gene ACHE
Description: as §1

Dopamine D2S = target: T16, Dopamine D2S (Homo sapiens, UniProt P14416); experiment: biochemical; design: Eurofins SafetyScreen44 panel of binding and enzyme assays, mean per cent inhibition of duplicate; conditions: read-out: Inhibition (%) at 10 µM TH9619
T16 construct: gene DRD2; isoform D2S (short)
Description: as §1

Histamine H1 = target: T17, Histamine H1 (Homo sapiens, UniProt P35367); experiment: biochemical; design: Eurofins SafetyScreen44 panel of binding and enzyme assays, mean per cent inhibition of duplicate; conditions: read-out: Inhibition (%) at 10 µM TH9619
T17 construct: gene HRH1
Description: as §1

[6] = target: T18, Serotonin (5-Hydroxytryptamine) 5-HT2B (Homo sapiens, UniProt P41595); experiment: biochemical; design: Eurofins SafetyScreen44 panel of binding and enzyme assays, mean per cent inhibition of duplicate; conditions: read-out: Inhibition (%) at 10 µM TH9619
T18 construct: gene HTR2B
Description: as §1

Muscarinic M1 = target: T19, Muscarinic M1 (Homo sapiens, UniProt P11229); experiment: biochemical; design: Eurofins SafetyScreen44 panel of binding and enzyme assays, mean per cent inhibition of duplicate; conditions: read-out: Inhibition (%) at 10 µM TH9619
T19 construct: gene CHRM1
Description: as §1

[7] = target: T20, Nicotinic Acetylcholine a4ß2, Cytisine (Homo sapiens, UniProt P17787+P43681); experiment: biochemical; design: Eurofins SafetyScreen44 panel of binding and enzyme assays, mean per cent inhibition of duplicate; conditions: read-out: Inhibition (%) at 10 µM TH9619
T20 construct: gene CHRNB2; cytisine site
Description: as §1

[8] = target: Protein Tyrosine Kinase, LCK (Homo sapiens, UniProt P06239); experiment: biochemical; design: Eurofins SafetyScreen44 panel of binding and enzyme assays, mean per cent inhibition of duplicate; conditions: read-out: Inhibition (%) at 10 µM TH9619
Description: as §1

Muscarinic M2 = target: T21, Muscarinic M2 (Homo sapiens, UniProt P08172); experiment: biochemical; design: Eurofins SafetyScreen44 panel of binding and enzyme assays, mean per cent inhibition of duplicate; conditions: read-out: Inhibition (%) at 10 µM TH9619
T21 construct: gene CHRM2
Description: as §1

Phosphodiesterase PDE3A = Phosphodiesterase PDE3A (Homo sapiens, UniProt Q14432); experiment: biochemical; design: Eurofins SafetyScreen44 panel of binding and enzyme assays, mean per cent inhibition of duplicate; conditions: read-out: Inhibition (%) at 10 µM TH9619
Description: as §1

Monoamine Oxidase MAO-A = target: T22, Monoamine Oxidase MAO-A (Homo sapiens, UniProt P21397); experiment: biochemical; design: Eurofins SafetyScreen44 panel of binding and enzyme assays, mean per cent inhibition of duplicate; conditions: read-out: Inhibition (%) at 10 µM TH9619
T22 construct: gene MAOA
Description: as §1

Adrenergic ß1 = target: T23, Adrenergic ß1 (Homo sapiens, UniProt P08588); experiment: biochemical; design: Eurofins SafetyScreen44 panel of binding and enzyme assays, mean per cent inhibition of duplicate; conditions: read-out: Inhibition (%) at 10 µM TH9619
T23 construct: gene ADRB1
Description: as §1

[9] = target: T24, Transporter, Norepinephrine (NET) (Homo sapiens, UniProt P23975); experiment: biochemical; design: Eurofins SafetyScreen44 panel of binding and enzyme assays, mean per cent inhibition of duplicate; conditions: read-out: Inhibition (%) at 10 µM TH9619
T24 construct: gene SLC6A2
Description: as §1

Vasopressin V1A = target: T25, Vasopressin V1A (Homo sapiens, UniProt P37288); experiment: biochemical; design: Eurofins SafetyScreen44 panel of binding and enzyme assays, mean per cent inhibition of duplicate; conditions: read-out: Inhibition (%) at 10 µM TH9619
T25 construct: gene AVPR1A
Description: as §1

[10] = target: T26, Transporter, Serotonin (5-Hydroxytryptamine) (SERT) (Homo sapiens, UniProt P31645); experiment: biochemical; design: Eurofins SafetyScreen44 panel of binding and enzyme assays, mean per cent inhibition of duplicate; conditions: read-out: Inhibition (%) at 10 µM TH9619
T26 construct: gene SLC6A4
Description: as §1

Glucocorticoid = target: T27, Glucocorticoid (Homo sapiens, UniProt P04150); experiment: biochemical; design: Eurofins SafetyScreen44 panel of binding and enzyme assays, mean per cent inhibition of duplicate; conditions: read-out: Inhibition (%) at 10 µM TH9619
T27 construct: gene NR3C1
Description: as §1

Cyclooxygenase COX-2 = target: T28, Cyclooxygenase COX-2 (Homo sapiens, UniProt P35354); experiment: biochemical; design: Eurofins SafetyScreen44 panel of binding and enzyme assays, mean per cent inhibition of duplicate; conditions: read-out: Inhibition (%) at 10 µM TH9619
T28 construct: gene PTGS2
Description: as §1

Cyclooxygenase COX-1 = target: T29, Cyclooxygenase COX-1 (Homo sapiens, UniProt P23219); experiment: biochemical; design: Eurofins SafetyScreen44 panel of binding and enzyme assays, mean per cent inhibition of duplicate; conditions: read-out: Inhibition (%) at 10 µM TH9619
T29 construct: gene PTGS1
Description: as §1

Muscarinic M3 = target: T30, Muscarinic M3 (Homo sapiens, UniProt P20309); experiment: biochemical; design: Eurofins SafetyScreen44 panel of binding and enzyme assays, mean per cent inhibition of duplicate; conditions: read-out: Inhibition (%) at 10 µM TH9619
T30 construct: gene CHRM3
Description: as §1

[11] = target: T31, Potassium Channel hERG, [3H]Dofetilide (Homo sapiens, UniProt Q12809); experiment: in vitro; design: Eurofins SafetyScreen44 panel of binding and enzyme assays, mean per cent inhibition of duplicate
T31 construct: gene KCNH2; dofetilide site
Description: as §1

Adrenergic ß2 = target: T32, Adrenergic ß2 (Homo sapiens, UniProt P07550); experiment: biochemical; design: Eurofins SafetyScreen44 panel of binding and enzyme assays, mean per cent inhibition of duplicate; conditions: read-out: Inhibition (%) at 10 µM TH9619
T32 construct: gene ADRB2
Description: as §1

Adrenergic α1A = target: T33, Adrenergic α1A (Homo sapiens, UniProt P35348); experiment: biochemical; design: Eurofins SafetyScreen44 panel of binding and enzyme assays, mean per cent inhibition of duplicate; conditions: read-out: Inhibition (%) at 10 µM TH9619
T33 construct: gene ADRA1A
Description: as §1

Adenosine A2A = target: T34, Adenosine A2A (Homo sapiens, UniProt P29274); experiment: biochemical; design: Eurofins SafetyScreen44 panel of binding and enzyme assays, mean per cent inhibition of duplicate; conditions: read-out: Inhibition (%) at 10 µM TH9619
T34 construct: gene ADORA2A
Description: as §1

[12] = target: T35, Serotonin (5-Hydroxytryptamine) 5-HT1A (Homo sapiens, UniProt P08908); experiment: biochemical; design: Eurofins SafetyScreen44 panel of binding and enzyme assays, mean per cent inhibition of duplicate; conditions: read-out: Inhibition (%) at 10 µM TH9619
T35 construct: gene HTR1A
Description: as §1

MTHFD2L = MTHFD2L (Homo sapiens, UniProt Q9H903); experiment: biochemical activity assay; conditions: read-out: MTHFD2L IC50
MTHFD2 = MTHFD2 (Homo sapiens, UniProt P13995); experiment: cocrystal structure with NAD+; enzymatic IC50; CETSA; type: biochemical
MTHFD1-(DC) = target: T36, MTHFD1-(DC) (Homo sapiens, UniProt P11586); experiment: biochemical activity assay
T36 construct: dehydrogenase/cyclohydrolase (DC) domain
T36 sequence (P11586 2-306 limits assumed): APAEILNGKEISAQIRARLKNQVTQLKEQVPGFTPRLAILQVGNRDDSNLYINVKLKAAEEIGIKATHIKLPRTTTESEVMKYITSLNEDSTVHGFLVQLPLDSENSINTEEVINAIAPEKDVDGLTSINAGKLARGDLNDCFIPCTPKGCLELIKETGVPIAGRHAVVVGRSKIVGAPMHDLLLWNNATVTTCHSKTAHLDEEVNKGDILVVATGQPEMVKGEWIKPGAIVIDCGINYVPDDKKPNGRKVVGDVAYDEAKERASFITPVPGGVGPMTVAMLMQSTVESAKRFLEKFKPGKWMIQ

T1 sequence (P08913 whole entry): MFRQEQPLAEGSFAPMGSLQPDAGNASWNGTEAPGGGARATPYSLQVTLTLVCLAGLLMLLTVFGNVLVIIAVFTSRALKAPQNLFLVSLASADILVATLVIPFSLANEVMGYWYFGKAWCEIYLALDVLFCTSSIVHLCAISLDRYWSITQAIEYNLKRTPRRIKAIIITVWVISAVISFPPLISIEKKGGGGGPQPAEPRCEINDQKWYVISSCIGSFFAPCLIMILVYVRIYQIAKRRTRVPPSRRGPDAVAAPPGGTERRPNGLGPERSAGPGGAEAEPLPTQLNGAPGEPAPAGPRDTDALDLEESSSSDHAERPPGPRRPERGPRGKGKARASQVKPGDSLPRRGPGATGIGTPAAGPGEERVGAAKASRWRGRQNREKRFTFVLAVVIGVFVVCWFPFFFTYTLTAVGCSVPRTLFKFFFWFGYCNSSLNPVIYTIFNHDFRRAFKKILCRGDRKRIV
T23 sequence (P08588 whole entry): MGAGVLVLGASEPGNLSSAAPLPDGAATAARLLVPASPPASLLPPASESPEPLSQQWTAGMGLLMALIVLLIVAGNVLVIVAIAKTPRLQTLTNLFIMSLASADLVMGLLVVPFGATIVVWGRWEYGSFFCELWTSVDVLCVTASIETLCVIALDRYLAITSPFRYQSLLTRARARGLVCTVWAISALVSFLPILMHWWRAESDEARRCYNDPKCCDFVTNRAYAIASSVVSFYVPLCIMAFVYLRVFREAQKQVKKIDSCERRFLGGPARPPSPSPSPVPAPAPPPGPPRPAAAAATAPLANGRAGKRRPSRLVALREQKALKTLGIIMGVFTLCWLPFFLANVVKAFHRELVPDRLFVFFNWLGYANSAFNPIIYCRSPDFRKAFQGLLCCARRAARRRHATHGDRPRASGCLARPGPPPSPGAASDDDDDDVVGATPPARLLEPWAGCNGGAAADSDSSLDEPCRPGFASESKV
T27 sequence (P04150 whole entry): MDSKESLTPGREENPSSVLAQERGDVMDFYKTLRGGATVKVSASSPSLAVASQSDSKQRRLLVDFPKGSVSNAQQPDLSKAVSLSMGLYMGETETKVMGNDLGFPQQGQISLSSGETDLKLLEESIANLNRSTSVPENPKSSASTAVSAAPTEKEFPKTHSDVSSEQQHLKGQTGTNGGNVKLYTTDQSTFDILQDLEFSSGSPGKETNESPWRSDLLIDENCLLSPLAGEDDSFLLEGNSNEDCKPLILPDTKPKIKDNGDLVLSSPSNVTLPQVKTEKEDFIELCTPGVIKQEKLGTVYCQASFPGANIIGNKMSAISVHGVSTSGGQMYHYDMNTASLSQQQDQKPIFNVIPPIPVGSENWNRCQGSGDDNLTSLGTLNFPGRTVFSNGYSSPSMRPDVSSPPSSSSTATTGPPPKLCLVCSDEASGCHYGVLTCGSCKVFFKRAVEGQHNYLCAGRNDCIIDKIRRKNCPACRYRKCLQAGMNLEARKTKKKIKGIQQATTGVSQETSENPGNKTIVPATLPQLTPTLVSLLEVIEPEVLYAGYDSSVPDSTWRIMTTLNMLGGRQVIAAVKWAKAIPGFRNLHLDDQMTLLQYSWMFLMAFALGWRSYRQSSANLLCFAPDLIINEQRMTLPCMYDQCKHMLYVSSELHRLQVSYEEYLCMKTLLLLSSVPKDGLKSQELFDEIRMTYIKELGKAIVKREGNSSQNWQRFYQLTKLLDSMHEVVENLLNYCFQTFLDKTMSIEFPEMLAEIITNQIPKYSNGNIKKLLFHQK
T33 sequence (P35348 whole entry): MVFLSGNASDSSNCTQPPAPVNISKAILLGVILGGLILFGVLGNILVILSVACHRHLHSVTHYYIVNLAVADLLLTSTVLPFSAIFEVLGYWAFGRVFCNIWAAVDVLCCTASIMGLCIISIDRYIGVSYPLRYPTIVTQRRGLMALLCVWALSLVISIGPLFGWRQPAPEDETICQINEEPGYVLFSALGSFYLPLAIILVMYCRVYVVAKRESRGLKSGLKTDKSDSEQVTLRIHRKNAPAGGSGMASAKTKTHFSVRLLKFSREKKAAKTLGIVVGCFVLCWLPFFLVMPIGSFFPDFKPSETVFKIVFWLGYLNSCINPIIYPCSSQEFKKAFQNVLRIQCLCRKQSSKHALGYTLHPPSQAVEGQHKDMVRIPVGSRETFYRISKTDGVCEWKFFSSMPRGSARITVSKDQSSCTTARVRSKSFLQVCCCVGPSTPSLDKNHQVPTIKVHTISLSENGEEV
T15 sequence (P22303 whole entry): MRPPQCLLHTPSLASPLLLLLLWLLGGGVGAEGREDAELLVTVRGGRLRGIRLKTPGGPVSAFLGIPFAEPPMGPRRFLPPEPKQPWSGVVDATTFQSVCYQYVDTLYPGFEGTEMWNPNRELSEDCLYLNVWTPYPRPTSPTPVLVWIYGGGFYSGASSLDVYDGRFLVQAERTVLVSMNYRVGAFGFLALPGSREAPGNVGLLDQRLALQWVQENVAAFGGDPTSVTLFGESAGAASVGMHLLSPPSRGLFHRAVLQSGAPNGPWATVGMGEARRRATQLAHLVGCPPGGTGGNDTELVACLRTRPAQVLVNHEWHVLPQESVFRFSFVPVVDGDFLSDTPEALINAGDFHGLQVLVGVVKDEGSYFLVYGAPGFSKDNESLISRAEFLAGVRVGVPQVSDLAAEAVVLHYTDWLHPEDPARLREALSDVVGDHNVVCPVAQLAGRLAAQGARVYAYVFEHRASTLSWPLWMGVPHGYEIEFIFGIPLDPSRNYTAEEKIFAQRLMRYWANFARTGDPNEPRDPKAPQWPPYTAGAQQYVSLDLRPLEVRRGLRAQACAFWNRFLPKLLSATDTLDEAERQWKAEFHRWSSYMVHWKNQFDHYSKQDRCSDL
T13 sequence (P46098 whole entry): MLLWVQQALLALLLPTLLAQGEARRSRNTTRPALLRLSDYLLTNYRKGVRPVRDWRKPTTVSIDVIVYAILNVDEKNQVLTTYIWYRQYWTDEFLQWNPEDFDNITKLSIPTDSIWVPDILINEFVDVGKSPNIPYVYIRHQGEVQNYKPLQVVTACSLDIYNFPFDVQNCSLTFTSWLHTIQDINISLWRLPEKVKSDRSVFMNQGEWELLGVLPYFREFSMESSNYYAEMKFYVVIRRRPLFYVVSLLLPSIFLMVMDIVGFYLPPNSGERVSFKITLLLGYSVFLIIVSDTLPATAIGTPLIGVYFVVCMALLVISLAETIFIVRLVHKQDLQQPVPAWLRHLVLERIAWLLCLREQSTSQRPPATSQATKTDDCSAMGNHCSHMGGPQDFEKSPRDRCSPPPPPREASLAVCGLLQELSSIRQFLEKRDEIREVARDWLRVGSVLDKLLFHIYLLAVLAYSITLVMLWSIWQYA
T7 sequence (P28222 whole entry): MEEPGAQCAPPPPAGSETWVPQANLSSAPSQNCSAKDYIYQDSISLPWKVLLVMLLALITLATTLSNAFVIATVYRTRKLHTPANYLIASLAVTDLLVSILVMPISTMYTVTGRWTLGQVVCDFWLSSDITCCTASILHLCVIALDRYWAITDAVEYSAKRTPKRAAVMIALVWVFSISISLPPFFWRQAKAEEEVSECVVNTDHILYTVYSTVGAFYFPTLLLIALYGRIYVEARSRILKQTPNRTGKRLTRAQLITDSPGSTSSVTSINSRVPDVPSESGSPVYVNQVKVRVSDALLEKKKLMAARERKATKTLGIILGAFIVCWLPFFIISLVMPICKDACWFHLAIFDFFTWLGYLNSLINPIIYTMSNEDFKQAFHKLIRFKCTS
T18 sequence (P41595 whole entry): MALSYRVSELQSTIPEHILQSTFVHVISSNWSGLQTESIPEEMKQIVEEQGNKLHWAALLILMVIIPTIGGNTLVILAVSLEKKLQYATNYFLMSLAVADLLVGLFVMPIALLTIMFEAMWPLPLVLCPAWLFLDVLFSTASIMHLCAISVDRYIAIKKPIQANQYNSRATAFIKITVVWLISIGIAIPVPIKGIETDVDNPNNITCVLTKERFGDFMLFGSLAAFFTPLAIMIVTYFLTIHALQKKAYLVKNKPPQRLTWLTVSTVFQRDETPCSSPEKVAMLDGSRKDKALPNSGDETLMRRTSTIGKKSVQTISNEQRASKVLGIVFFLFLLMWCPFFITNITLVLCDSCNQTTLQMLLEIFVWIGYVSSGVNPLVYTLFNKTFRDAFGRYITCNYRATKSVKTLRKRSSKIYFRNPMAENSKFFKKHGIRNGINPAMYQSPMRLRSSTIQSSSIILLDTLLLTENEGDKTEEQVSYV
T14 sequence (P41145 whole entry): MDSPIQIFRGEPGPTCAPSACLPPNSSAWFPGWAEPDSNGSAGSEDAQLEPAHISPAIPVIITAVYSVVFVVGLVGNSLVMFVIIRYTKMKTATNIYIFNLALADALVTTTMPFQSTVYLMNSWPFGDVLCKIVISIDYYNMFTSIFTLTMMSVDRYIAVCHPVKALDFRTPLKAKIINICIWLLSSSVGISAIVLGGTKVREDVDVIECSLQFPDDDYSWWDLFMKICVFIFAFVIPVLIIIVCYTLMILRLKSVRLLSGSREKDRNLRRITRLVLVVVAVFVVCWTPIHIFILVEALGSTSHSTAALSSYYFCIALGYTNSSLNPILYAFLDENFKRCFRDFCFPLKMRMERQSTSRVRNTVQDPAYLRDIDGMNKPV

Compound: Nc1nc(N)c(CC(=O)Nc2cnc(C(=O)N[C@@H](CCC(=O)O)C(=O)O)c(F)c2)c(=O)[nH]1 [TH9619]
- inhibition at 10 µM (Adrenergic α2A): 9%
- inhibition at 10 µM [1]: 7%
- inhibition at 10 µM (Cannabinoid CB1): 0%
- inhibition at 10 µM (Opiate µ (OP3, MOP)): -10%
- inhibition at 10 µM [2]: -7%
- inhibition at 10 µM (Endothelin ETA): -7%
- inhibition at 10 µM [3]: -8%
- inhibition at 10 µM (Dopamine D1): 5%
- inhibition at 10 µM (Phosphodiesterase PDE4D2): -1%
- inhibition at 10 µM (Histamine H2): -6%
- inhibition at 10 µM (Androgen (Testosterone)): 3%
- inhibition at 10 µM (Cannabinoid CB2): -3%
- inhibition at 10 µM [4]: -4%
- inhibition at 10 µM (Opiate κ (OP2, KOP)): 5%
- inhibition at 10 µM [5]: 21%
- inhibition at 10 µM (Dopamine D2S): 1%
- inhibition at 10 µM (Histamine H1): 7%
- inhibition at 10 µM [6]: 1%
- inhibition at 10 µM (Muscarinic M1): -7%
- inhibition at 10 µM [7]: 2%
- inhibition at 10 µM [8]: 1%
- inhibition at 10 µM (Muscarinic M2): -29%
- inhibition at 10 µM (Phosphodiesterase PDE3A): -3%
- inhibition at 10 µM (Monoamine Oxidase MAO-A): 6%
- inhibition at 10 µM (Adrenergic ß1): 0%
- inhibition at 10 µM [9]: -12%
- inhibition at 10 µM (Vasopressin V1A): -15%
- inhibition at 10 µM [10]: 5%
- inhibition at 10 µM (Glucocorticoid): 3%
- inhibition at 10 µM (Cyclooxygenase COX-2): 16%
- inhibition at 10 µM (Cyclooxygenase COX-1): 9%
- inhibition at 10 µM (Muscarinic M3): -2%
- inhibition at 10 µM [11]: 5%
- inhibition at 10 µM (Adrenergic ß2): 1%
- inhibition at 10 µM (Adrenergic α1A): 9%
- inhibition at 10 µM (Adenosine A2A): 11%
- inhibition at 10 µM [12]: 0%

Compound: TH9028
- IC50 (MTHFD2L): 27 nM
- IC50 (MTHFD2): 11 nM
- IC50 (MTHFD1-(DC)): 0.5 nM
